ChEMBL document CHEMBL1140777, “3,4-Diamino-2,5-thiadiazole-1-oxides as potent CXCR2/CXCR1 antagonists” (Bioorg Med Chem Lett, 2008)

How the values were obtained:
[1] = molecular target: T1, C-X-C chemokine receptor type 2 (Homo sapiens, UniProt P25025); test: Binding affinity to CXCR2
T1 sequence (P25025 whole entry): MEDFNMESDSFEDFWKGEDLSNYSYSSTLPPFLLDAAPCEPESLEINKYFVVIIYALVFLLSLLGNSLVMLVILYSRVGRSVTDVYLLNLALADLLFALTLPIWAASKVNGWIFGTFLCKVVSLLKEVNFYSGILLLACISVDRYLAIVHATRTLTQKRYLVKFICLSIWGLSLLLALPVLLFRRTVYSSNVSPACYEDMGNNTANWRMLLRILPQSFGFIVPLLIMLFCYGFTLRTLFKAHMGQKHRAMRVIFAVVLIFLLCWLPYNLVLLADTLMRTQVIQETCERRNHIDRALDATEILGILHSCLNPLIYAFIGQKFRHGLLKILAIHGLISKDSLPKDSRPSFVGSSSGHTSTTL

[2] = molecular target: T2, C-X-C chemokine receptor type 1 (Homo sapiens, UniProt P25024); test: Binding affinity to CXCR1
T2 sequence (P25024 whole entry): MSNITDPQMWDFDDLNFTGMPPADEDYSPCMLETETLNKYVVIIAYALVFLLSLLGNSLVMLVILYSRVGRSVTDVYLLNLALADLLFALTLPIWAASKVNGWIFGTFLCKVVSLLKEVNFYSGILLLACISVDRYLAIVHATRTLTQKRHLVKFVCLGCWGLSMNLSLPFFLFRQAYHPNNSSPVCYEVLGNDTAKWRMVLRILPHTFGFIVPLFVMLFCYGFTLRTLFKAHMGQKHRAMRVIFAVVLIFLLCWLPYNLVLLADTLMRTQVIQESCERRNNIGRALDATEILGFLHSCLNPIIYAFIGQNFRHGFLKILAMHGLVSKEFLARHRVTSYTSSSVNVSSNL

[3] = molecular target: T3, Interleukin-8 receptors, CXCR1/CXCR2 (Homo sapiens, UniProt P25025+P25024); test: Antagonist activity at CXCR1/CXCR2 in human PMN cells assessed as inhibition of IL8-mediated myeloperoxidase release; assay type: functional, cell-based
T3 sequence (P25025 whole entry): T1 sequence (P25025 whole entry)
T3 sequence (P25024 whole entry): T2 sequence (P25024 whole entry)

[4] = molecular target: T3, Interleukin-8 receptors, CXCR1/CXCR2; test: Antagonist activity at CXCR1/CXCR2 in human PMN cells assessed as inhibition of GROalpha-mediated myeloperoxidase release; assay type: functional, cell-based
[5] = molecular target: Interleukin-8 receptors, CXCR1/CXCR2 (Homo sapiens) (UniProt P25025+P25024); test: Antagonist activity at CXCR1/CXCR2 in human PMN cells assessed as inhibition of GROalpha-mediated myeloperoxidase release at 1 uM; assay type: functional, cell-based; set-up: scale not given: the % may be the effect or the level left
[6] = Drug level in po dosed rat blood; assay type: ADME, organism-based; details: read-out: Activity

Ki [1] [nM]	Ki [2] [nM]	IC50 [3] [nM]	IC50 [4] [nM]	Activity [5] [%]	AUC [6] [µM·h]	Compound
8	4010					CC(C)[C@@H](Nc1n[s+]([O-])nc1Nc1cccc(C(=O)N(C)C)c1O)c1cccc(F)c1 (stereo not given in full)
4	130	142	28			CN(C)C(=O)c1cccc(Nc2n[s+]([O-])nc2N[C@@H](c2ccccc2)C(C)(C)C)c1O (stereo not given in full)
11	652					CC(C)[C@@H](NC1=NS(=O)(=O)N=C1Nc1cccc(C(=O)N(C)C)c1O)c1cccc(F)c1
2.3	21	20	8			CN(C)C(=O)c1cccc(Nc2n[s+]([O-])nc2N[C@@H](c2ccco2)C(C)(C)C)c1O (stereo not given in full)
58	484	684	38		5.28	C[C@H](Nc1n[s+]([O-])nc1Nc1cccc(C(=O)N(C)C)c1O)C(C)(C)C (stereo not given in full)
		54	13		119	Cc1cc([C@H](Nc2n[s+]([O-])nc2Nc2cccc(C(=O)N(C)C)c2O)C(C)C)oc1C (stereo not given in full)
5	1220		331			CC[C@@H](Nc1n[s+]([O-])nc1Nc1cccc(C(=O)N(C)C)c1O)c1ccccc1 (stereo not given in full)
9	61	15	8			CC[C@@H](Nc1n[s+]([O-])nc1Nc1cccc(C(=O)N(C)C)c1O)c1cc(C(C)C)co1 (stereo not given in full)

The next lines start with the compound.

Compound	Ki [1] [nM]	Ki [2] [nM]	IC50 [3] [nM]	IC50 [4] [nM]	Activity [5] [%]	AUC [6] [µM·h]
CN(C)C(=O)c1cccc(Nc2n[s+]([O-])nc2NCc2ccc3c(c2)OCO3)c1O (stereo not given)	15	10000				
Cc1ccc([C@H](Nc2n[s+]([O-])nc2Nc2cccc(C(=O)N(C)C)c2O)C(C)(C)C)o1 (stereo not given in full)	5	38	80	27		
CN(C)C(=O)c1cccc(NC2=NS(=O)(=O)N=C2N[C@@H](c2ccc(Cl)o2)C(C)(C)C)c1O	9	129				
CC[C@@H](NC1=NS(=O)(=O)N=C1Nc1cccc(C(=O)N(C)C)c1O)c1ccc(C)o1		5950				
Cc1ccc([C@H](NC2=NS(=O)(=O)N=C2Nc2cccc(C(=O)N(C)C)c2O)C2(C)CC2)o1	184	1100			-11	
CC[C@@H](NC1=NS(=O)(=O)N=C1Nc1cccc(C(=O)N(C)C)c1O)c1ccccc1		8990	8990		-39	2.3
CN(C)C(=O)c1cccc(N=C2NS(=O)(=O)N=C2N[C@@H](c2ccc3c(c2)OCCO3)C(C)(C)C)c1O	24	2000				1.87
CCC(C)(C)[C@@H](NC1=NS(=O)(=O)N=C1Nc1cccc(C(=O)N(C)C)c1O)c1ccco1	16	188			-19	
CC[C@@H](Nc1n[s+]([O-])nc1Nc1cccc(C(=O)N(C)C)c1O)c1ccc(C)o1 (stereo not given in full)	3	234	539	133		
CC[C@@H](NC1=NS(=O)(=O)NC1=Nc1cccc(C(=O)N(C)C)c1O)c1ccc2c(c1)OCCN2C	9	2800				
CN(C)C(=O)c1cccc(NC2=NS(=O)(=O)N=C2N[C@@H](c2ccc3c(c2)OCO3)C(C)(C)C)c1O	4.7	46				
CN(C)C(=O)c1cccc(NC2=NS(=O)(=O)N=C2N[C@@H](c2ccc3c(c2)OCCO3)C(C)(C)C)c1O					-12	
CN(C)C(=O)c1cccc(NC2=NS(=O)(=O)N=C2N[C@@H](c2ccco2)C(C)(C)C)c1O	11	61			3	
CN(C)C(=O)c1cccc(Nc2n[s+]([O-])nc2N[C@@H](c2ccco2)C2(C)CC2)c1O (stereo not given in full)	12	375	400	132		
